Consider nine molecules from patent US7759326B2, “Aminophosphonic acid derivative, salt thereof, and modulator of S1P receptor” (Kyorin Pharmaceutical Co., Ltd., priority 2003, dated 2010).

Where a name gives a salt, the structure may show the parent alone.

One experiment has as its target T1, hS1P1 receptors (Homo sapiens, UniProt P21453).
T1 construct: expressed in transfected cells; host or cells: CHO cells (Geneticin-selected)
In words: Intracellular Ca2+ mobilization in CHO cells expressing human S1P receptors (hS1P1). It is filed as cell-based. The following applies: read-out: S1P1 (EC50 class, intracellular Ca2+ mobilization). The method, then:
(§1) Test for the Ability of Test Compounds to Induce Intracellular Ca^2+ Mobilization in Cells Expressing Human S1P (Sphingosine-1-Phosphate) Receptors
(§2) CHO cells expressing human S1P receptors (i.e., CHO cells expressing hS1P1 receptors or hS1P3 receptors) were subcultured on Ham's F-12 medium supplemented with 10% fetal bovine serum and 200 μg/mL Geneticin. The cells were seeded on a 96-well black clear bottom plate (COSTAR) at 4×10^4 cells/well and were cultured overnight at 37° C. in 5% CO2. A fluorescent reagent that emits fluorescence upon binding to Ca^2+ (Calcium Screening Kit (DOJINDO)) was added to the culture and the cells were further cultured for 60 min at 37° C. in 5% CO2. After culturing, microplate spectrofluorometer (FLEX station, MOLECULAR DEVICE) was used to measure the fluorescence intensity at an excitation wavelength of 485 nm and a detection wavelength of 525 nm. S1P or a test compound adjusted with cultural medium to a concentration 10 times higher than the final concentration (final DMSO concentration=0.1%). Each test compound solution was added 18 sec. after beginning of the measurement of fluorescence. The fluorescence intensity was measured every 1.5 sec for 100 sec. For each test compound, the difference between the maximum fluorescence intensity and the minimum fluorescence intensity (i.e., increase in fluorescence) was determined from the measurements. The rate of fluorescence increase (%) for each test compound was calculated by the difference (100%) of the fluorescence increase between solvent only and S1P (10^−6M). Using this value as an index of the ability of the test compound to induce intracellular Ca^2+ mobilization, EC50 was determined by PRISM software (GraphPad).
A general note: A change in cytosolic calcium serves as a functional read-out for many receptors and channels.

The next experiment addresses T2, hS1P3 receptors (Homo sapiens, UniProt Q99500).
T2 construct: expressed in transfected cells; host or cells: CHO cells (Geneticin-selected)
In words: Intracellular Ca2+ mobilization in CHO cells expressing human S1P receptors (hS1P3). The following applies: read-out: S1P3 (EC50 class, intracellular Ca2+ mobilization). It is filed as cell-based. The method, then: as §1, §2

The test system of experiment [1] is host vs. graft rejection in mice. In words: Inhibitory effects on host vs. graft rejection in mice (right popliteal lymph node weight). Format: in vivo, C3H/HeN mice. The following applies: Mus musculus. The method, then: Inhibitory Effects of Test Compounds on Host Vs. Graft Rejection in Mice
This experiment was performed according to the method described in Transplantation 55(3) (1993): 578-591. Spleens were collected from 6 to 16 week old male BALB/c mice (CHARLES RIVER JAPAN). The spleens were placed in an RPMI-1640 medium (SIGMA) and were gently pressed between two slide glasses and then passed through a cell strainer (70 μm, Falcon) to form a cell suspension. The suspension was then centrifuged and the supernatant was discarded. An ammonium chloride-Tris isotonic buffer was added to the suspension to lyse erythrocytes. The cells were then centrifuged three times in RPMI-1640 medium for washing and were resuspended in an RPMI-1640 medium. To this suspension, mitomycin C (KYOWA HAKKO KOGYO Co., Ltd.) was added to a final concentration of 25 μg/mL and the suspension was incubated for 30 minutes at 37° C. in a 5% CO2 atmosphere. The cells were centrifuged three times in RPMI-1640 medium for washing and were resuspended in an RPMI-1640 medium so that the medium would contain 2.5×10^8 cells/mL. This suspension served as a “stimulation cell suspension.” Using a 27 G needle with a microsyringe (Hamilton), 20 μL (5×10^6 cells/mouse) of the stimulation cell suspension was subcutaneously injected into the right hind footpad of 6 to 8 week old male C3H/HeN mice (CLEA JAPAN). Normal control group was injected with RPMI-1640 medium alone. 4 days after the injection, right popliteal lymph nodes were collected and were weighed on a Mettler AT201 electronic scale (METTLER TOLEDO Co., Ltd.). Each animal was intraperitoneally administered a test compound once a day for four consecutive days starting on the day of the injection of the stimulation cells (i.e., total of 4 times). Control groups were administered the same vehicle as that used in the preparation of each test compound. The inhibition (%) was determined using the following formula {[Weight of right popliteal lymph nodes of positive control group]−[Weight of right popliteal lymph nodes of test compound group]×100}/{[Weight of right popliteal lymph nodes of positive control group]−[Weight of right popliteal lymph nodes of normal control group]} Formula 1

The next experiment concerns the target T3, hS1P4 receptors (Homo sapiens, UniProt O95977).
T3 construct: expressed in transfected cells; host or cells: CHO cells (Geneticin-selected)
T3 sequence (O95977 1-384): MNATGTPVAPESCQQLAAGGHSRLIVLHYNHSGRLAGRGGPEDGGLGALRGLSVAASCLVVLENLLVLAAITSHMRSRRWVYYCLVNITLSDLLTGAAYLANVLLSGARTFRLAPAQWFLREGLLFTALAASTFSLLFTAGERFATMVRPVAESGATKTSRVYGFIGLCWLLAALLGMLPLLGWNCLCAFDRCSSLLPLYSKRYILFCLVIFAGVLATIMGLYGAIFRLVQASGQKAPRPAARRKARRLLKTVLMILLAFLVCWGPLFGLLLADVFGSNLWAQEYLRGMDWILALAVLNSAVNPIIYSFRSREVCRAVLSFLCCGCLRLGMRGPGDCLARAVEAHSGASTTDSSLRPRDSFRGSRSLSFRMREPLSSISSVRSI
As to the kind of experiment: Activation of extracellular regulatory kinase (ERK) in CHO cells expressing hS1P4 receptors. It is filed as cell-based. The method, then: Test for the Ability of Test Compounds to Induce Activation of Extracellular Regulatory Kinase (ERK) in Cells Expressing Human S1P Receptors
CHO cells expressing human S1P receptors (i.e., CHO cells expressing hS1P4 receptors) were subcultured on Ham's F-12 medium supplemented with 10% fetal bovine serum and 200 μg/mL Geneticin. The cells were seeded on a 6-well cell culture plate (COSTAR) at 3×10^5 cells/well and were cultured overnight at 37° C. in 5% CO2. On the following day, the medium was replaced with FBS-free Ham's F-12 medium (containing 0.1% fatty acid-free bovine serum albumin) and the cells were cultured overnight at 37° C. in 5% CO2. S1P or a test compound adjusted with Ham's F-12 medium (with 0.1% fatty acid-free bovine serum albumin) to a concentration 10 times higher than the final concentration (final DMSO concentration=0.1%). Each test compound solution was added to this culture plate. The cells were cultured for 5 min at 37° C. in 5% CO2. The medium was removed and the cells were washed with a 200 μmol/L ice-cold PBS containing Na3VO4. A lysis buffer (20 mmol/L Tris-HCl pH 7.5, 1% Triton X-100, 1 mmol/L EDTA, 1 mmol/L EGTA, 0.5 mmol/L Na3VO4, 0.1% β-mercaptoethanol, 50 mmol/L NaF, 5 mmol/L Na4O7P3, 10 mmol/L C3H7O6Na, 1 μmol/L Microcystin LR, 1× Complete Protease Inhibitor Cocktail (ROCHE)) was then added to the cells and the reaction was carried out on ice for 5 min to lyse the cells. The cell lysate was subjected to sodium dodecyl sulfate-polyacrylamide gel electrophoresis (SDS-PAGE) to separate proteins. The proteins were transferred to a PVDF membrane (Hybond-P, Amersham Biosciences). The membrane was reacted overnight at 4° C. with anti-phospho ERK (p42/44 MAPK) monoclonal antibody (E10, Cell Signaling Technologies) diluted 1000-fold, and was subsequently reacted for 1 hour at room temperature with alkaline phosphatase-labeled anti-mouse IgG antibody (Molecular Probe) diluted 6000-fold. After washing with 20 mmol/L Tris-HCl and 150 mmol/L NaCl solution, the PVDF membrane was fluorostained with DDAO phosphate (DyeChrome Western Blot Stain Kit, Molecular Probe), a fluorescent substrate of alkaline phosphatase. The fluorescence was detected using a variable image analyzer (Typhoon 8600, Amersham Biosciences). The detected signal of phosphorylated ERK was quantified using ImageQuant software (Molecular Dynamics). The rate of ERK activation (%) for each test compound was calculated by the difference (100%) of the signal intensity between solvent only and S1P (10^−6 mol/L).

Broadly, the EC50 is the midpoint of the concentration-response curve. Usually inhibition in vivo stands for the share of the control response that was lost under treatment. A low value points to little suppression.

T1 sequence (P21453 whole entry): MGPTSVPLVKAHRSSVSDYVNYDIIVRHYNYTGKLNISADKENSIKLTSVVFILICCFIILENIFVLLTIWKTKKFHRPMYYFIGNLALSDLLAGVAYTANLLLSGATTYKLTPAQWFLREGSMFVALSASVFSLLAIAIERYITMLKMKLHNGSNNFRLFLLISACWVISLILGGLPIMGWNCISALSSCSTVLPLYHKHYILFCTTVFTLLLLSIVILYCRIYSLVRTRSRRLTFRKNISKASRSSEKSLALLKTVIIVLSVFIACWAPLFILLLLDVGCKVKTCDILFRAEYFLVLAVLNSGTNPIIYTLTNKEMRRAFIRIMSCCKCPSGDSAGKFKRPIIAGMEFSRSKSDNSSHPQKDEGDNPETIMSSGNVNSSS
T2 sequence (Q99500 whole entry): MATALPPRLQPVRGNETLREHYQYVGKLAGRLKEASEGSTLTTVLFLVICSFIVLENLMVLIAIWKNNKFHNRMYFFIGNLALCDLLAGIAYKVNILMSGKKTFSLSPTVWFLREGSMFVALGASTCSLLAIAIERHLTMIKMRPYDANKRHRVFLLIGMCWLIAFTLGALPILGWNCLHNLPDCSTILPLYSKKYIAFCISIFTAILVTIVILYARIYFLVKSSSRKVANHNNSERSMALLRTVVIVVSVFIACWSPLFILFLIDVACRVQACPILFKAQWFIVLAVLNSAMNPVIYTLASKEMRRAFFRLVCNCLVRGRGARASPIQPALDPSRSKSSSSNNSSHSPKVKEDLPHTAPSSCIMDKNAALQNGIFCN

`NC(CCCc1ccc(Sc2cccc(OCc3ccccc3)c2)cc1Cl)CCP(=O)(O)O` (stereo not shown) [Example 241, 3-amino-6-[4-(3-benzyloxyphenylthio)-2-chlorophenyl]hexylphosphonic acid]: the EC50 on hS1P1 receptors was 100 to 1000 nM; on hS1P3 receptors, no less than 1000 nM. Moreover, the inhibition in vivo at 10 mg/kg in experiment [1] is 46%.

The molecule `CCOP(=O)(C=CC(N)CCCc1ccc(Sc2cccc(OCc3ccccc3)c2)cc1Cl)OCC` (stereo not shown) [Example 233, Diethyl 3-amino-6-[4-(3-benzyloxyphenylthio)-2-chlorophenyl]-1-hexenylphosphonate hydrochloride] had an inhibition in vivo at 30 mg/kg in experiment [1] of 53%.

On to `COP(=O)(OC)OCC(C)(CCc1ccc(Sc2cccc(OCc3ccccc3)c2)cc1Cl)NC(=O)OC(C)(C)C` (single isomer, unassigned; (+)) [Example 247, (+)-4-[4-(3-benzyloxyphenylthio)-2-chlorophenyl]-2-t-butoxycarbonylamino-1-dimethoxyphosphoryloxy-2-methylbutane], for which, in experiment [1], the inhibition in vivo at 0.03 mg/kg amounted to 63%.

With `NC(/C=C/P(=O)(O)O)CCCc1ccc(Sc2cccc(OCc3ccccc3)c2)cc1Cl` (stereo not shown) [Example 242, 3-amino-6-[4-(3-benzyloxyphenylthio)-2-chlorophenyl]-1-hexenylphosphonic acid], the EC50 at hS1P1 receptors was 100 to 1000 nM; at hS1P3 receptors, no less than 1000 nM. This molecule also displayed an inhibition in vivo at 10 mg/kg in experiment [1] of 62%.

In the case of `NC(CO)(CCc1ccc(Sc2cccc(OCc3ccccc3)c2)cc1Cl)COP(=O)(O)O` (stereo not shown) [Example 237, 2-amino-4-[4-(3-benzyloxyphenylthio)-2-chlorophenyl]-2-hydroxymethylbutylphosphonate monoester], the EC50 on hS1P1 receptors and at hS1P3 receptors was less than 10 nM in each case. For the same molecule, the “Induction effect of ERK activation on hS1P-expressing CHO cells (Activation rate (%) relative to the activated ERK at S1P10-6 mol/L)” value on hS1P4 receptors (Compound Conc. 1 nmol/L) amounted to 35.8%; at hS1P4 receptors (Compound Conc. 10 nmol/L) it was 80.7%. Besides, in experiment [1] (Dose 0.1 mg/kg), the inhibition in vivo at 0.1 mg/kg was found to be 75%.

For `NC(CO)(CCCc1ccc(Sc2cccc(OCc3ccccc3)c2)cc1Cl)COP(=O)(O)O` (stereo not shown) [Example 236, 2-amino-5-[4-(3-benzyloxyphenylthio)-2-chlorophenyl]-2-hydroxymethylpentylphosphonate monoester], the EC50 at hS1P1 receptors and on hS1P3 receptors was 10 to 100 nM each time. Besides, the “Induction effect of ERK activation on hS1P-expressing CHO cells (Activation rate (%) relative to the activated ERK at S1P10-6 mol/L)” value at hS1P4 receptors (Compound Conc. 1 nmol/L) came to 8.0%; at hS1P4 receptors (Compound Conc. 10 nmol/L), 119.5%. In experiment [1], this molecule came in with an inhibition in vivo at 0.03 mg/kg of 73%.

Consider `CCOP(=O)(CCC(N)CCCc1ccc(Sc2cccc(OCc3ccccc3)c2)cc1Cl)OCC` (stereo not shown) [Example 235, Diethyl 3-amino-6-[4-(3-benzyloxyphenylthio)-2-chlorophenyl]hexylphosphonate hydrochloride], for which 30 mg/kg produced 56% inhibition in vivo in experiment [1].

With `CC(N)(CCCc1ccc(Sc2cccc(OCc3ccccc3)c2)cc1Cl)COP(=O)(O)O` (single isomer, unassigned; (+)) [Example 239, (+)-2-amino-5-[4-(3-benzyloxyphenylthio)-2-chlorophenyl]-2-methylpentylphosphonate monoester], the EC50 at hS1P1 receptors and on hS1P3 receptors was less than 10 nM in each case. Further, in experiment [1], the inhibition in vivo at 0.03 mg/kg is 65%.

Turning to `NC(CO)(CCCc1ccc(Sc2cccc(O)c2)cc1Cl)COP(=O)(O)O` (stereo not shown) [Example 238, 2-amino-5-[2-chloro-4-(3-hydroxyphenylthio)phenyl]-2-hydroxymethylpentylphosphonate monoester], the values for the EC50 at hS1P1 receptors and at hS1P3 receptors were 100 to 1000 nM and no less than 1000 nM, respectively. In experiment [1] (Dose 3 mg/kg), this molecule gave an inhibition in vivo at 3 mg/kg of 65%.
